ChEMBL document CHEMBL4371054, “Dual inhibition of Kif15 by oxindole and quinazolinedione chemical probes” (Bioorg Med Chem Lett, 2019)
Active and inactive are the calls of the source. The calls are words filed in the database; no cut-off is given here.

Key:
[1] = target: T1, Kinesin-like protein KIF15 (Homo sapiens) (UniProt Q9NS87); experiment: Inhibition of recombinant His6-tagged Kif15 (N700 residues) (unknown origin) expressed in HeLa cells assessed as reduction in Alexa-594 labelled microtubule gliding at 750 nM measured every 2 secs for 20 secs by epifluorescence microscopic analysis (reference value: 1%); assay type: cell-based
T1 sequence (whole entry): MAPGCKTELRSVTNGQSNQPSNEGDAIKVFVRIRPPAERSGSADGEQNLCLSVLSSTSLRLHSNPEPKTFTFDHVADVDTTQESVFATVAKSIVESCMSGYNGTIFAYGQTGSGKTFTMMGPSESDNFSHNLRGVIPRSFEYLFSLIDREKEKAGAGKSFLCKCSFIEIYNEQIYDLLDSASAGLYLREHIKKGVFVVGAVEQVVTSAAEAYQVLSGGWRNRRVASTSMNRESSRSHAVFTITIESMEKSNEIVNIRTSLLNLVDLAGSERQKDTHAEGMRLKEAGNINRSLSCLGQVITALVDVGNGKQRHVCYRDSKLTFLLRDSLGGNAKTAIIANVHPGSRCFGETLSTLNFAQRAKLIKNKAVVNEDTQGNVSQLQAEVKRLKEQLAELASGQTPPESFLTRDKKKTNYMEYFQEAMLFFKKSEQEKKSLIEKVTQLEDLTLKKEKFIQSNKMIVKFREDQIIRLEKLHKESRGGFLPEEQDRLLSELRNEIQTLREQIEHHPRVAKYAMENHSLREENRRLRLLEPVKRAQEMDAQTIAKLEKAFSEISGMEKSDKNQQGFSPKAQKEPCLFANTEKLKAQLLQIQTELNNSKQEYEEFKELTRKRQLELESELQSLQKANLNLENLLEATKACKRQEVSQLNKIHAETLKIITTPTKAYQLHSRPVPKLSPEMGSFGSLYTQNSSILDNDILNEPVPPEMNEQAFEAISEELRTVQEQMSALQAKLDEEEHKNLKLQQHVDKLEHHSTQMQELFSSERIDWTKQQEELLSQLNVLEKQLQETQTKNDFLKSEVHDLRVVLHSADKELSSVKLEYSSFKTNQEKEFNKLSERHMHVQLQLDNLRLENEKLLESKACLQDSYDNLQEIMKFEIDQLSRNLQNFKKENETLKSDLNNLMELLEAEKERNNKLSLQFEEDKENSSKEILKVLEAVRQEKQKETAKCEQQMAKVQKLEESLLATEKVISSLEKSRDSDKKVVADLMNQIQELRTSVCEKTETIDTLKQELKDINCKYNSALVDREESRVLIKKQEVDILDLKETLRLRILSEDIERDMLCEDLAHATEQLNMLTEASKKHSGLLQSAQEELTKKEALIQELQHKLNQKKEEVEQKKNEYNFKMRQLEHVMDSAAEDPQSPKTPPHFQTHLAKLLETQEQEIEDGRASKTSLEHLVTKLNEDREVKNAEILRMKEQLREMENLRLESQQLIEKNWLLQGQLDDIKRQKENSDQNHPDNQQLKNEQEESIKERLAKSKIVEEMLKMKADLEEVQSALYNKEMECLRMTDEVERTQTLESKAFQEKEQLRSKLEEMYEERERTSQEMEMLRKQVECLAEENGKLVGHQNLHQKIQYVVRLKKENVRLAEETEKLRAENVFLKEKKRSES

[2] = target: T2, Kinesin-like protein KIF15 (Homo sapiens, UniProt Q9NS87); experiment: (§1) Inhibition of recombinant His6-tagged Kif15 (N700 residues) (unknown origin) expressed in HeLa cells assessed as reduction in Alexa-594 labelled microtubule gliding measured every 2 secs for 20 secs by epifluorescence microscopic analysis; assay type: cell-based
T2 sequence (Q9NS87 whole entry): T1 sequence (whole entry)

[3] = target: T1, Kinesin-like protein KIF15 (Homo sapiens); experiment: as §1, with “Reversible inhibition” for “Inhibition”, “gliding at 10 uM treated for 1 min followed by compound washout and” for “gliding”, “1 min” for “20 secs”; assay type: cell-based
[4] = target: T1, Kinesin-like protein KIF15 (Homo sapiens); experiment: Inhibition of Kif15 in TP53-deficient human RPE1 cells assessed as cells with bipolar pre-anaphase microtubule structure at 25 uM after 24 hrs by Hoechst 33342 staining based immunofluorescence microscopic analysis (reference value: 90 to 94%); parameters: scale not given: the % may be the effect or the level left
[5] = target: T1, Kinesin-like protein KIF15 (Homo sapiens); experiment: Inhibition of Kif15 in TP53-deficient human RPE1 cells assessed as reduction in spindle-bound Kif15 level at 25 uM after 24 hrs by Hoechst 33342 staining based immunofluorescence microscopic analysis relative to control
[6] = target: T1, Kinesin-like protein KIF15 (Homo sapiens); experiment: Inhibition of Kif15 in TP53-deficient human RPE1 cells assessed as reduction in Kif15 level at 25 uM after 24 hrs by Western blot analysis relative to control
[7] = target: T1, Kinesin-like protein KIF15 (Homo sapiens); experiment: Inhibition of Kif15 in TP53-deficient human RPE1 cells assessed as effect on spindle length at 25 uM after 24 hrs by Hoechst 33342 staining based immunofluorescence microscopic analysis (reference value: 11.4 +/- 0.2 um)
[8] = target: T1, Kinesin-like protein KIF15 (Homo sapiens); experiment: Inhibition of Kif15 in K51-resistant human KIRC1 cells assessed as cells with monopolar spindles at 25 uM after 24 hrs by Hoechst 33342 staining based immunofluorescence microscopic analysis (reference value: 43 to 49%); parameters: scale not given: the % may be the effect or the level left
[9] = target: T2, Kinesin-like protein KIF15; experiment: Inhibition of recombinant C-terminal truncated His6-tagged Kif15 (N700 residues) (unknown origin) expressed in Escherichia coli BL21 (DE3) assessed as reduction in microtubule gliding measured up to 2 mins
[10] = target: T1, Kinesin-like protein KIF15 (Homo sapiens); experiment: ATP competitive inhibition of recombinant His6-tagged Kif15 ATPase activity (N700 residues) (unknown origin) expressed in HeLa cells at 5 uM using microtubule as substrate preincubated for 30 mins followed by varying levels of ATP addition by double reciprocal Lineweaver-Burk plot analysis
[11] = target: T1, Kinesin-like protein KIF15 (Homo sapiens); experiment: Inhibition of recombinant His6-tagged Kif15 ATPase activity (N420 residues) (unknown origin) expressed in HeLa cells at 10 uM using microtubule as substrate preincubated for 15 mins followed by ATP addition and measured after 20 mins by ADP-Glo luminescence assay relative to control
[12] = target: T2, Kinesin-like protein KIF15; experiment: Inhibition of recombinant His6-tagged Kif15 ATPase activity (N420 residues) (unknown origin) expressed in HeLa cells using microtubule as substrate preincubated for 15 mins followed by ATP addition and measured after 20 mins by ADP-Glo luminescence assay

| inhibition [1] | Structure (SMILES) | further results |
| --- | --- | --- |
| 38% | O=C1Nc2ccc(C(=O)c3ccco3)cc2/C1=C/c1cc(F)c(O)c(Br)c1 |  |
| -5.6% | O=C1Nc2ccc(C(=O)c3ccco3)cc2/C1=C/c1ccc(Br)c(O)c1 |  |
| 26% | O=C1Nc2ccc(C(=O)c3ccco3)cc2/C1=C/c1cc(I)c(O)c(I)c1 |  |
| 62% | O=C1Nc2ccc(C(=O)c3ccco3)cc2/C1=C/c1cc(Cl)c(O)c(Br)c1 |  |
| 9% | Cc1cc(/C=C2\C(=O)Nc3ccc(C(=O)c4ccco4)cc32)cc(C)c1O |  |
| 16% | O=C1Nc2ccc(C(=O)c3ccco3)cc2/C1=C/c1cc(Br)cc(Br)c1 |  |
| 65% | O=C1Nc2ccc(C(=O)c3ccco3)cc2/C1=C/c1cc(Br)c(O)c(Br)c1 |  |
| 21% | O=C1Nc2ccc(C(=O)c3ccco3)cc2/C1=C/c1cc(F)c(O)c(F)c1 |  |
| 23% | O=C1Nc2ccc(C(=O)c3ccco3)cc2/C1=C/c1ccc(O)c(Br)c1 |  |
| 2.3% | COc1ccc(/C=C2\C(=O)Nc3ccc(C(=O)c4ccco4)cc32)cc1Br |  |

More lines, now with the values behind:

| Structure (SMILES) | inhibition [1] | further results |
| --- | --- | --- |
| O=C1Nc2ccc(-c3ccco3)cc2/C1=C/c1cc(Cl)c(O)c(Cl)c1 | 33% |  |
| O=C1Nc2ccc(C(=O)N3CCCC3)cc2/C1=C/c1cc(Cl)c(O)c(Cl)c1 | -10% |  |
| O=C1Nc2ccc(C(=O)c3ccco3)cc2/C1=C/c1cccc(O)c1 | 8.21% |  |
| O=C1Nc2ccc(C(=O)c3ccco3)cc2/C1=C/c1ccnc(Cl)c1 | 15.8% |  |
| O=C1Nc2ccc(-c3cccc(F)c3)cc2/C1=C/c1cc(Cl)c(O)c(Cl)c1 | -5.8% |  |
| O=C1Nc2ccc(I)cc2/C1=C/c1cc(Cl)c(O)c(Cl)c1 | 15% |  |
| O=C1Nc2ccc(C(=O)c3ccco3)cc2/C1=C/c1ccc(O)c(C(F)(F)F)c1 | 9.5% |  |
| COc1cc(/C=C2\C(=O)Nc3ccc(C(=O)c4ccco4)cc32)cc(Cl)c1O | -3.5% |  |
| CCOC(=O)c1sc(NC(=O)[C@H](C(C)C)n2c(=O)[nH]c3ccccc3c2=O)nc1C |  | IC50 [2]: 0.2 µM; inhibition [3]: Active; Activity [4]: 96%; inhibition [5]: inactive; inhibition [6]: 15%; Activity [7]: 9.9 µm; Activity [8]: 84%; IC50 [9]: 1.72 µM; inhibition [10]: Active |
| O=C1Nc2ccc(C(=O)c3ccco3)cc2/C1=C/c1ccncc1 | 0.8% |  |
| CN(C)C(=O)c1ccc2c(c1)/C(=C/c1cc(Cl)c(O)c(Cl)c1)C(=O)N2 | 15.3% |  |
| O=C1Nc2ccc(-c3ccccn3)cc2/C1=C/c1cc(Cl)c(O)c(Cl)c1 | 7.3% |  |
| O=C1Nc2ccc(C(=O)c3ccco3)cc2/C1=C/c1ccc(O)nc1 | 26.5% |  |
| O=C1Nc2ccc(I)cc2/C1=C/c1cc(Br)c(O)c(Br)c1 |  | inhibition [11]: 90%; IC50 [12]: 2.5 µM |
| O=C1Nc2ccc(I)cc2/C1=C/c1cc(F)c(O)c(F)c1 | 4.8% |  |
